Key:
MES-SA cells = experiment: MTT cell viability assay, paclitaxel response; format: cell-based, human; settings: 100 nM paclitaxel for 72 h
Experimental: The paclitaxel-resistant cell lines MES-SA^DX5 and A549^TR were transfected with a scrambled non-targeting miRNA (control) and an miR-135a mimic (mimic), respectively. Cells were subsequently treated with 100 nM paclitaxel and cell viability was assessed using the MTT assay (FIGS. 2A, 2B). The percentage of apoptotic cells was assessed by Annexin V-staining and FACS analysis (FIGS. 2C, 2D). Values are presented as percent cell survival in paclitaxel-treated cells relative to untreated cells. *P<0.05, **P<0.001 as determined by Wilcoxon's rank sum test.
FIGS. 4A-4E are a series of micrographs and line graphs showing that miR-135a-mediated APC suppression contributes to paclitaxel resistance. MES-SA and A549 cells were mock-transfected (mock), transfected with a scrambled siRNA (siControl) or with siRNA directed against APC (siAPC). […] Transfected A549 (FIG. 4B) and MES-SA (FIG. 4C) cells were treated with paclitaxel and viability was assessed using the MTT assay. […] (FIG. 4E) Both A549-shCON and -shAPC cells were treated with paclitaxel and cell viability was measured using the MTT assay. […]
Cell growth inhibition was determined by a 3-(4,5-dimethylthiazol-2-yl)-2,5-diphenyltetrazolium (MTT) bromide assay. […] Absorbance was determined using a 96-well SpectraMax plate reader (Molecular Devices, Sunnyvale, Calif.) at 560 nm and 650 nm (background). […]

[1] = Mouse weight during paclitaxel treatment; format: in vivo, nude mice; settings: 15 mg/kg paclitaxel intraperitoneally 3 times per week
Experimental: FIG. 11 is a line graph indicating mouse weight in paclitaxel-treated and control groups. Tumor-bearing nude mice were treated i.p. with 15 mg/kg paclitaxel every other day. Animals were weighed before each injection on a digital scale. Each curve represents the mean weight±s.e.m. of 10 mice per day of treatment.
Approximately 4×10^6 human A549 NSCLC cells were resuspended in 50% Matrigel (BD Biosciences, Bedford, Mass.) and injected subcutaneously into the hind flanks of 8-wk old male athymic (nu/nu) nude mice (Taconic Farms, Inc., Hudson, N.Y.). When the average tumor volume reached ˜150 mm^3, mice (N=10 per group) were randomly assigned to the treatment or control group (Day 0). Mice were treated with vehicle (control) or 15 mg/kg paclitaxel (Bristol-Myers Squibb Co, Princeton, N.J.) intraperitoneally 3 times per week (on Mondays, Wednesdays, and Fridays). […] Tumor size was determined by digital caliper measurements (length and width in mm), and tumor volume (mm^3) was estimated using the formula (length×width^2)/2. Effects on tumor growth rate were assessed per mouse by determining the tumor volume on the day of treatment relative to the tumor volume on Day 0. Animals were sacrificed once morbidity became evident or their tumor size exceeded 1000 mm^3. […]

T28.2 xenografts = experiment: Retransplantation xenograft, paclitaxel-sensitive control clone; format: in vivo, nude mice
Experimental: FIGS. 6A-6C are a series of graphs showing data that validate the A549 in vivo paclitaxel resistance model. (FIG. 6A) Tumor cell lines established after an initial round of inoculation and treatment with either vehicle (T28.2) or 15 mg/kg paclitaxel (T20.2) were harvested during log-phase growth and reinjected subcutaneously into the flanks of nude mice. When the average tumor volume was ˜120 mm^3, vehicle (open circles or squares) or 15 mg/kg paclitaxel (closed circles or squares) was administered intraperitoneally every other day. Treatment was continued until tumors reached approximately four times their initial volume. Each curve represents the average tumor growth±s.e.m. for 10 mice per group. […] Each bar represents the average tumor growth±s.e.m. for 10 mice per group. NS: not significant, *P<0.05 as determined by Wilcoxon's rank sum test. (FIG. 6C) Tumors were harvested, cultured in vitro and cell viability was assessed using the MTT assay. Values are presented as percentage of cell survival in paclitaxel-treated cells relative to untreated cells. White bars represent LC50s from tumor cell lines established from T28.2 tumors treated with vehicle. Black bars represent LC50s from cell lines established from T20.2 tumors treated with paclitaxel. Shown are the mean±s.e.m. of two independent experiments, each performed in triplicate. *P<0.05 as determined by Wilcoxon's rank sum test. […]

CC(=O)O[C@H]1C(=O)[C@@]2(C)[C@H]([C@H](OC(=O)c3ccccc3)[C@]3(O)C[C@H](OC(=O)[C@H](O)[C@@H](NC(=O)c4ccccc4)c4ccccc4)C(C)=C1C3(C)C)[C@]1(OC(C)=O)CO[C@@H]1C[C@@H]2O [paclitaxel]
cell survival (MES-SA cells): 21.8% | mouse morbidity as measured by mouse weight [1]: minimal effects on mouse morbidity | tumor growth after paclitaxel treatment (T28.2 xenografts; 15 mg/kg paclitaxel i.p.): shrank substantially | reduction of relative tumor burden at the end of the experiment (T28.2 xenografts; 15 mg/kg paclitaxel i.p. vs vehicle, P=0.003): 4.5 fold

— patent US9687467B2, “Diagnosis and treatment of taxane-resistant cancers” (Children's Medical Center Corporation, priority 2011, dated 2017)
